Test results taken from patent publication US20260374751A1, “AMIDE PRODRUGS AND USES THEREOF” (Autobahn Therapeutics, Inc., priority 2022, published 2026).

Biological target: T1, recombinant human FAAH (rhFAAH) (Homo sapiens, UniProt O00519)
T1 sequence (O00519 1-579): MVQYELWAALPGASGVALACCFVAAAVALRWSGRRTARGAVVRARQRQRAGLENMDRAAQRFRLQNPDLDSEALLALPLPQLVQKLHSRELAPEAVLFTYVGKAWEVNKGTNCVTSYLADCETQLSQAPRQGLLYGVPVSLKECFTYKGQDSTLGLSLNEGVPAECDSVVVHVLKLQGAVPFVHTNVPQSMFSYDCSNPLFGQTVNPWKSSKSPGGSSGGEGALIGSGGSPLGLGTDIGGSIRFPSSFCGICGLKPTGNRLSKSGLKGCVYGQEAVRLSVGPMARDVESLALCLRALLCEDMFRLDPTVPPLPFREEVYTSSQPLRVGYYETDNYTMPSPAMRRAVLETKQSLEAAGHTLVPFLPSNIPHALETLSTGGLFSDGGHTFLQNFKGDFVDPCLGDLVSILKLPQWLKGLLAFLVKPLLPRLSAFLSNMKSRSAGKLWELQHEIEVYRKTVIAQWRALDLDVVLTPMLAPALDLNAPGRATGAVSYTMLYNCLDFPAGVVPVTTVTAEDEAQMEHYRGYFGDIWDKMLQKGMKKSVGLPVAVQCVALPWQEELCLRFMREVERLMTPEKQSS
Assay: FAAH substrate evaluation: formation of acid metabolite by purified recombinant human FAAH (rhFAAH)
Type: biochemical
Conditions: role: substrate; 1 μM test compound, 0.5 ng/μL rhFAAH, 1.25% ethanol or 1 μM PF-3845 (FAAH inhibitor), 0.1% BSA, Tris-EDTA pH 8.0, room temperature, 0-60 minutes
Method: Purified recombinant human FAAH (rhFAAH) was purchased from Cayman Chemical (Ann Arbor, MI, USA). The total volume for each incubation was 400 μL containing a final 0.5 ng/μL rhFAAH, 1 μM test compound, 1.25% ethanol or 1 μM PF-3845 (FAAH inhibitor), and 0.1% bovine serum albumin in Tris-EDTA buffer at pH 8.0). The incubation was conducted at room temperature. At 0, 5, 15, 30 and 60 minutes, an aliquot of 30 μL reaction mixtures was removed and mixed with 300 μL acetonitrile containing 5 ng/mL terfenadine and 10 ng/mL tolbutamide as internal standards to quench the reaction. The resulting mixture was centrifuged at 4000 rpm, 4 °C for 15 minutes, and 100 μL supernatant was ready for LC-MS/MS analysis to measure the formation of acid metabolite.
Acquity Ultra Performance LC system from Waters was used for sample analysis. The chromatography was performed on a reverse phase Kinetex 2.6 μm C18 column, 2.1×30 mm, 100 Å. The mobile phase A comprised of 0.1% formic acid in water and mobile phase B comprised of 0.1% formic acid in acetonitrile with a 1.5 min run time at the flow rate of 0.9 mL/min for the acid metabolite of test compounds. The mass spectrometer (API-5500 and API Q Trap 4000 Applied Biosystems/MDS SCIEX Instruments, Framingham, MA, USA) was operated under ESI positive or negative ion MRM mode.
The formation of acid metabolite was monitored and quantified using one calibration point of 1 μM. The observed rate constant (ke) for the acid metabolite formation was calculated by plotting the metabolite concentration versus time of incubation with the slope being ke and is shown in Table 1.

Row | Compound | ke (observed rate constant for the acid metabolite formation)
1 | CCCc1ccc(COc2ccc3c(c2)CCC(CN2CC(C(=O)N(CC)CC)C2)=C3C)c(OC)c1 [Compound 16, N,N-diethyl-1-((6-((2-methoxy-4-propylbenzyl)oxy)-1-methyl-3,4-dihydronaphthalen-2-yl)methyl)azetidine-3-carboxamide] | C (ke is 0)
2 | CCCc1ccc(COc2ccc3c(c2)CCC(CN2CC(C(=O)N4CCC4)C2)=C3C)c(OC)c1 [Compound 12, azetidin-1-yl(1-((6-((2-methoxy-4-propylbenzyl)oxy)-1-methyl-3,4-dihydronaphthalen-2-yl)methyl)azetidin-3-yl)methanone] | A (ke is more than or equal to 1.0)
3 | CCCc1ccc(COc2ccc3c(c2)CCC(CN2CC(C(=O)N(C)CC)C2)=C3C)c(OC)c1 [Compound 17, N-ethyl-1-((6-((2-methoxy-4-propylbenzyl)oxy)-1-methyl-3,4-dihydronaphthalen-2-yl)methyl)-N-methylazetidine-3-carboxamide] | C (ke is 0)
4 | CCCc1ccc(COc2ccc3c(c2)CCC(CN2CC(C(=O)N(C)C)C2)=C3C)c(OC)c1 [Compound 23, 1-((6-((2-methoxy-4-propylbenzyl)oxy)-1-methyl-3,4-dihydronaphthalen-2-yl)methyl)-N,N-dimethylazetidine-3-carboxamide] | B (ke is less than 1.0 and more than 0)
5 | CCCc1ccc(COc2ccc3c(c2)CCC(CN2CC(C(=O)NCC4CC4)C2)=C3C)c(OC)c1 [Compound 7, N-(cyclopropylmethyl)-1-((6-((2-methoxy-4-propylbenzyl)oxy)-1-methyl-3,4-dihydronaphthalen-2-yl)methyl)azetidine-3-carboxamide] | A (ke is more than or equal to 1.0)
6 | CCCCNC(=O)C1CN(CC2=C(C)c3ccc(OCc4ccc(CCC)cc4OC)cc3CC2)C1 [Compound 15, N-butyl-1-((6-((2-methoxy-4-propylbenzyl)oxy)-1-methyl-3,4-dihydronaphthalen-2-yl)methyl)azetidine-3-carboxamide] | A (ke is more than or equal to 1.0)
7 | CCCc1ccc(COc2ccc3c(c2)CCC(CN2CC(C(=O)NOC)C2)=C3C)c(OC)c1 [Compound 20, N-methoxy-1-((6-((2-methoxy-4-propylbenzyl)oxy)-1-methyl-3,4-dihydronaphthalen-2-yl)methyl)azetidine-3-carboxamide] | A (ke is more than or equal to 1.0)
8 | CCCc1ccc(COc2ccc3c(c2)CCC(CN2CC(C(=O)NC)C2)=C3C)c(OC)c1 [Compound 2, 1-((6-((2-methoxy-4-propylbenzyl)oxy)-1-methyl-3,4-dihydronaphthalen-2-yl)methyl)-N-methylazetidine-3-carboxamide] | B (ke is less than 1.0 and more than 0)
9 | CCCNC(=O)C1CN(CC2=C(C)c3ccc(OCc4ccc(CCC)cc4OC)cc3CC2)C1 [Compound 18, 1-((6-((2-methoxy-4-propylbenzyl)oxy)-1-methyl-3,4-dihydronaphthalen-2-yl)methyl)-N-propylazetidine-3-carboxamide] | A (ke is more than or equal to 1.0)
10 | CCCc1ccc(COc2ccc3c(c2)CCC(CN2CC(C(=O)NCCC(F)(F)F)C2)=C3C)c(OC)c1 [Compound 11, 1-((6-((2-methoxy-4-propylbenzyl)oxy)-1-methyl-3,4-dihydronaphthalen-2-yl)methyl)-N-(3,3,3-trifluoropropyl)azetidine-3-carboxamide] | A (ke is more than or equal to 1.0)
